Marks after values point to notes of the source that are not given here.

The nature of one data set: logP determination via retention times, calibrated with unbranched alkan-2-ones. The following applies: HPLC on reversed-phase C 18, EEC Directive 79/831 Annex V.A8; method *: 40° C., 0.1% aqueous formic acid and acetonitrile, linear gradient 10% to 95% acetonitrile. In kind it is physicochemical.
Take `CC(=O)N1CCc2cc(Nc3ncc(Cl)c(NCC4CC4)n3)ccc21` [compound 518]: the logP is listed as 1.59*.
Same read-out and setting: the result for `C#Cc1cccc(Nc2ncc(Cl)c(NC3CC3)n2)c1` [compound 502] reads 2.24*; that for `CCN(C(C)=O)c1ccc(Nc2ncc(Br)c(NCC3CC3)n2)cc1` [compound 480], 1.83*; that for `CN(C=O)c1ccc(Nc2ncc(Br)c(NCC3CC3)n2)cc1` [compound 490], 1.63*.
Still for that read-out and setting: in the case of `CC(=O)Nc1ccc(Nc2ncc(Br)c(NCC3CC3)n2)cc1Cl` [compound 479] it was 1.68*.

The data set is the same for the next values; noted with them: HPLC on reversed-phase C18, method *: 40° C., 0.1% aqueous formic acid and acetonitrile, linear gradient 10% to 95% acetonitrile.
Regarding `Oc1cccc(Nc2ncc(Cl)c(NCC3CC3)n2)c1` [compound 681], the logP is recorded as 1.49*.
On to `Clc1cnc(Nc2cccc(-n3ccnc3)c2)nc1NC1CC1` [compound 720], for which the logP was 0.91*.
On the same count and under the same terms, the result for `CC(=O)Nc1cc(Nc2ncc(Cl)c(NCC3CC3)n2)ccc1C` [compound 679] reads 1.49*; that for `Clc1ccccc1Nc1ncc(Cl)c(NC2CC2)n1` [compound 940], 2.6*; that for `Brc1cnc(Nc2ccc(OCCN3CCCCC3)cc2)nc1NC1CC1` [compound 117], 1.07*.
For `Oc1ccc(Nc2ncc(Cl)c(NCC3CC3)n2)cc1` [compound 680], the logP was 1.36*.
The same measure, in the same setting: in the case of `Clc1ccc(Nc2ncc(Cl)c(NC3CC3)n2)cc1Cl` [compound 941] it was 3.46*; in that of `CCCc1ccccc1Nc1ncc(Cl)c(NC2CC2)n1` [compound 912], 2.01*.
On the same count and under the same terms, the result for `C#CCS(=O)(=O)c1ccc(Nc2ncc(Cl)c(NC3CC3)n2)cc1` [compound 161] reads 2.21*; that for `O=C(Nc1ccccc1)Nc1cccc(Nc2ncc(Cl)c(NC3CC3)n2)c1` [compound 717], 1.93*; that for `COc1cc(Nc2ncc(Br)c(NC3CC3)n2)cc(OC)c1OC` [compound 761], 1.71*.
Still for that read-out and setting: the result for `CN(C)Cc1cccc(Nc2ncc(Cl)c(NC3CC3)n2)c1` [compound 718] reads 0.79*.
For `Clc1cnc(Nc2ccc3c(c2)OCO3)nc1NCC1CC1` [compound 695], the logP is listed as 1.75*.
The same measure, in the same setting: the result for `CS(=O)(=O)Nc1ccc(Nc2ncc(Br)c(NC3CC3)n2)cc1` [compound 756] reads 1.44*.
The same measure, in the same setting: in the case of `Fc1cc(Cl)ccc1Nc1ncc(Cl)c(NC2CC2)n1` [compound 947] it was 3.03*.

Staying with this data set, now noted: HPLC on reversed-phase C18, method *: 40° C.; mobile phase 0.1% aqueous formic acid and acetonitrile; linear gradient 10% to 95% acetonitrile.
In the case of `CCOC(=O)C1(Nc2nc(Nc3cc(OC)c(OC)c(OC)c3)ncc2Cl)CC1` [compound 317], the logP is reported as 2.01*.
Still for that read-out and setting: in the case of `COc1cc(Nc2ncc(Cl)c(NC3(c4ccccc4Cl)CC3)n2)cc(OC)c1OC` [compound 320] it was 3.06*; in that of `FC(F)Oc1cccc(Nc2ncc(Br)c(NC3CC3)n2)c1` [compound 332], 2.66*.
Regarding `Clc1ccccc1C1(Nc2nc(Nc3ccccc3)ncc2Cl)CC1` [compound 318], the logP is recorded as 3.66*.
On the same count and under the same terms, in the case of `CC(C)c1cccc(Nc2ncc(Br)c(NC3CC3)n2)c1` [compound 363] it was 2.8*; in that of `O=C1CCCN1c1cccc(Nc2ncc(Cl)c(NC3(c4ccccc4Cl)CC3)n2)c1` [compound 323], 2.95*; in that of `CC(C)OC(=O)Nc1cccc(Nc2ncc(Cl)c(NC3CC3)n2)c1` [compound 302], 1.99*.
On the same count and under the same terms, the result for `CC(C)(C)C(=O)Cc1ccc(Nc2ncc(Br)c(NC3CC3)n2)cc1` [compound 355] reads 2.39*.
On the same count and under the same terms, in the case of `CN(C)S(=O)(=O)c1ccc(Nc2ncc(Br)c(NC3CC3)n2)cc1` [compound 346] it was 2.33*; in that of `FC1(F)Oc2ccc(Nc3ncc(Cl)c(NC4CC4)n3)cc2OC1(F)F` [compound 289], 3.76*.

The data set is the same for the next values; noted with them: HPLC on reversed-phase C18 column (EEC Directive 79/831 Annex V.A8); method *: 40° C.; 0.1% aqueous formic acid and acetonitrile; linear gradient 10% to 95% acetonitrile.
Regarding `COC(=O)Nc1cccc(Nc2ncc(Cl)c(NC3CC3)n2)c1` [compound 193], the logP is on record as 1.44*.
The same measure, in the same setting: the result for `CCOC(=O)Cc1ccc(Nc2ncc(Cl)c(NC3CC3)n2)cc1` [compound 247] reads 1.99*.
Same read-out and setting: in the case of `FC(F)(F)Nc1cccc(Nc2ncc(Cl)c(NC3CC3)n2)c1` [compound 184] it was 3.55*; in that of `O=C1CCCN1c1cc(Nc2ncc(C(F)(F)F)c(NC3CC3)n2)ccc1F` [compound 265], 2.33*.
On the same count and under the same terms, the result for `CC(=O)c1cccc(Nc2ncc(C(F)(F)F)c(NCC3CC3)n2)c1` [compound 211] reads 2.77*; that for `CC(C)(C)NC(=O)c1ccc(Nc2ncc(C(F)(F)F)c(NCC3CC3)n2)cc1` [compound 207], 3.07*; that for `CC(C)(C)C(=O)Nc1cccc(Nc2ncc(C(F)(F)F)c(NCC3CC3)n2)c1` [compound 205], 2.77*.

Still in this data set, the particulars now being: HPLC reversed-phase C 18, EEC Directive 79/831 Annex V.A8; method *: 40° C., 0.1% aqueous formic acid and acetonitrile, linear gradient 10% to 95% acetonitrile.
On to `ClC1(Cl)CC1CNc1nc(Nc2ccccc2)ncc1Br` (centres unmarked) [compound 808], for which the logP is recorded as 2.6*.
Same read-out and setting: in the case of `O=C(O)CCc1cccc(Nc2ncc(Cl)c(NC3CC3)n2)c1` [compound 795] it was 1.09*.
With `CC(=O)Cc1cccc(Nc2ncc(Br)c(NC3CC3)n2)c1` [compound 782], the logP is on record as 1.64*.

Still in this data set, the particulars now being: method **: HPLC reversed-phase C 18, 43° C., 0.1% aqueous phosphoric acid and acetonitrile, linear gradient 10% to 95% acetonitrile.
`NS(=O)(=O)c1cc(Nc2ncc(Cl)c(NCC3CC3)n2)cc(C(F)(F)F)c1` [Example 18]: the logP was 2.63**.
On the same count and under the same terms, the result for `N#Cc1cc(Nc2ncc(Cl)c(NC3CC3)n2)ccc1N1CCCC1` [compound 439] reads 2.23**.

The data set is the same for the next values; noted with them: method **: HPLC reversed-phase C 18, temperature 43° C.; mobile phase 0.1% aqueous phosphoric acid and acetonitrile; linear gradient 10% to 95% acetonitrile.
Take `O=C1CCCN1c1cc(F)cc(Nc2ncc(Cl)c(NC3CC3)n2)c1` [compound 625]: the logP is recorded as 1.83**.
The same measure, in the same setting: the result for `CC(=O)Nc1ccc(Nc2ncc(C(F)(F)F)c(NC3CC3)n2)cc1Cl` [compound 648] reads 2.27**.

Staying with this data set, now noted: method *: HPLC reversed-phase C18, 40° C., 0.1% aqueous formic acid and acetonitrile, linear gradient 10% to 95% acetonitrile.
Consider `Cc1ccc(Nc2ncc(Br)c(NC3CC3)n2)cc1O` [compound 366], for which the logP is listed as 1.46*.
Same read-out and setting: in the case of `N#Cc1ccc(Nc2ncc(Cl)c(NC3CC3)n2)cc1` [compound 374] it was 2.33*; in that of `CC(C)CSc1cccc(Nc2ncc(Cl)c(NC3CC3)n2)c1` [compound 435], 3.75*; in that of `CSc1ccc(Nc2ncc(Br)c(NCC3CC3)n2)cc1` [compound 453], 2.29*.
The same measure, in the same setting: in the case of `CN(C)S(=O)(=O)c1ccc(Nc2ncc(Br)c(NCC3CC3)n2)cc1` [compound 449] it was 2.51*.

The data set is the same for the next values; noted with them: method *: HPLC reversed-phase C 18, temperature 40° C.; mobile phase 0.1% aqueous formic acid and acetonitrile; linear gradient 10% to 95% acetonitrile.
Consider `FC(F)(F)Oc1cccc(Nc2ncc(C(F)(F)F)c(NC3CC3)n2)c1` [compound 643], for which the logP is recorded as 4.08*.
The same measure, in the same setting: in the case of `N#Cc1cccc(Nc2ncc(C(F)(F)F)c(NC3CC3)n2)c1` [compound 638] it was 2.95*; in that of `CCN(C(C)=O)c1ccc(Nc2ncc(F)c(NC3CC3)n2)cc1` [compound 581], 1.38*; in that of `CC(=O)Nc1ccc(Nc2ncc(C(F)(F)F)c(NC3CC3)n2)cc1Cl` [compound 648], 2.18*;.
Still for that read-out and setting: the result for `N#Cc1cccc(Nc2ncc(F)c(NC3CC3)n2)c1` [compound 571] reads 1.61*; that for `O=C1CCCN1c1cccc(Nc2ncc(F)c(NC3CC3)n2)c1` [compound 599], 1.37*.

Staying with this data set, now noted: pH 2.3; read-out: logP (pH2.3).
Take `Clc1ncc(Br)c(NCC2CC2)n1` [5-bromo-2-chloro-N-(cyclopropylmethyl)pyrimidine-4-amine]: the chromatographic logP stood at 2.69.
Regarding `NS(=O)(=O)c1cccc(Nc2ncc(Cl)c(NC3CC3)n2)c1` [Example 15, 3-{[5-Chloro-4-(cyclopropylamino)pyrimidin-2-yl]amino}benzenesulphonamide], the chromatographic logP is 1.37.
Still for that read-out and setting: in the case of `Clc1ncc(Br)c(NC2CC2)n1` [5-bromo-2-chloro-N-cyclopropylpyrimidine-4-amine] it was 1.97.

The same data set, now with this note: reversed-phase C18 HPLC column; method **: HPLC reversed-phase C 18, 43° C., 0.1% aqueous phosphoric acid and acetonitrile, linear gradient 10% to 95% acetonitrile; read-out: logP.
Consider `NS(=O)(=O)c1cccc(Nc2ncc(Cl)c(NC3CC3)n2)c1` [Example 15, 3-{[5-Chloro-4-(cyclopropylamino)pyrimidin-2-yl]amino}benzenesulphonamide], for which the chromatographic logP is 1.37.

(Values after US20100081679A1, “DIAMINOPYRIMIDINES AS FUNGICIDES” (Bayer CropScience AG, priority 2007, published 2010).)
